Values of other authors, collected in patent publication US8613858B2, “Separation process” (Dupont Nutrition Biosciences APS, priority 2005, dated 2013).

Tests used:
[1] = characteristic properties of model compounds
[2] = characteristic properties of model compounds; remark: listed apart in the source

Row | LogPOW [2] | Structure (SMILES) | Water solubility [1] [mg/mL]
1 | −1.67 | O=C(O)CC(O)(CC(=O)O)C(=O)O [Citric acid] | –
2 | −1.76 | OCC(O)CO [Glycerol] | –

Row | Structure (SMILES) | LogPOW [2] | Water solubility [1] [mg/mL]
3 | C[N+](C)(C)CC(=O)O [Betaine] | −2.93 | 611
